Assay results taken from patent publication US11274097B2, “2-(het)aryl-substituted condensed bicyclic heterocycle derivatives as pest control agents” (BAYER CROPSCIENCE AKTIENGESELLSCHAFT, priority 2014, dated 2022).
Like-named read-outs stand apart in the source and are kept apart here.

Key:
[1] = log P by HPLC on a reversed-phase column (C 18), EEC Directive 79/831 Annex V.A8; type: physicochemical; settings: for LOGP_NEUTRAL: pH 7.8, 0.001 molar aqueous ammonium hydrogencarbonate/acetonitrile; for chromatographic logP: reversed-phase HPLC column (C 18)
Experimental: The log P values are measured according to EEC Directive 79/831 Annex V.A8 by HPLC (high-performance liquid chromatography) on a reversed-phase column (C 18). Temperature: 55° C. The LC-MS determination in the acidic range is effected at pH 2.7 using 0.1% aqueous formic acid and acetonitrile (contains 0.1% formic acid) as eluents, linear gradient from 10% acetonitrile to 95% acetonitrile. Called log P (HCOOH) in the table. LC-MS determination in the neutral range is effected at pH 7.8 with 0.001 molar aqueous ammonium hydrogencarbonate solution and acetonitrile as eluents; linear gradient from 10% acetonitrile to 95% acetonitrile. Called log P (neutral) in the table. Calibration is effected with unbranched alkan-2-ones (having 3 to 16 carbon atoms) with known log P values (log P values determined on the basis of the retention times by linear interpolation between two successive alkanone s).

Phaedon cochleariae = Phaedon cochleariae spray test (PHAECO); type: in vivo; settings: larvae, after 7 days
Experimental: Phaedon cochleariae—Spray Test (PHAECO)
(§1) Solvent: 78.0 parts by weight of acetone • • 1.5 parts by weight of dimethylformamide
(§2) Emulsifier: alkylaryl polyglycol ether
(§3) To produce an appropriate active ingredient formulation, 1 part by weight of active ingredient is dissolved using the stated parts by weight of solvent and made up with water containing an emulsifier concentration of 1000 ppm until the desired concentration is attained. To produce further test concentrations, the preparation is diluted with emulsifier-containing water.
Discs of Chinese cabbage leaves (Brassica pekinensis) are sprayed with an active ingredient formulation of the desired concentration and, after drying, populated with larvae of the mustard beetle (Phaedon cochleariae).
After 7 days, the efficacy in % is determined. 100% means that all the beetle larvae have been killed; 0% means that no beetle larvae have been killed.

Myzus persicae = Myzus persicae spray test (MYZUPE), Chinese cabbage leaf discs; type: in vivo; settings: application rate 500 g/ha, after 6 days
Experimental: Myzus persicae—Spray Test (MYZUPE)
Solvent: 78 parts by weight of acetone • • 1.5 parts by weight of dimethylformamide
Emulsifier: alkylaryl poly glycol ether
as §3
Discs of Chinese cabbage leaves (Brassica pekinensis) infested by all stages of the green peach aphid (Myzus persicae) are sprayed with an active ingredient formulation of the desired concentration.
After 6 days, the efficacy in % is determined. 100% means that all the aphids have been killed; 0% means that none of the aphids have been killed.

Spodoptera frugiperda = Spodoptera frugiperda spray test (SPODFR); type: in vivo; settings: application rate 500 g/ha; maize leaf discs; after 7 days
Experimental: Spodoptera frugiperda—Spray Test (SPODFR)
as §1, §2, §3
Leaf discs of maize (Zea mays) are sprayed with an active ingredient formulation of the desired concentration and, after drying, populated with caterpillars of the armyworm (Spodoptera frugiperda).
After 7 days, the efficacy in % is determined. 100% means that all the caterpillars have been killed; 0% means that no caterpillars have been killed.

[2] = acidic range, pH 2.7, 0.1% aqueous formic acid/acetonitrile, 55° C., read-out: LOGP_HCOOH
[3] = neutral range, pH 7.8, read-out: log P (neutral)
[4] = acidic range, pH 2.7, 0.1% aqueous formic acid/acetonitrile, 55° C.

Row | SMILES | LOGP_NEUTRAL ([1]; neutral range, 55° C.) | chromatographic logP [1, 2] | chromatographic logP [1, 3] | efficacy (Phaedon cochleariae; application rate 500 g/ha) [%] | LOGP_HCOOH [1, 4] | efficacy (Myzus persicae) [%] | efficacy (Phaedon cochleariae; application rate 100 g/ha) [%] | efficacy (Spodoptera frugiperda) [%]
1 | CSc1cc(C(F)(F)F)cnc1-c1nc2cc(C(F)(F)F)ncc2n1C [Example I-3, 3-methyl-2-[3-(methylsulphanyl)-5-(trifluoromethyl)pyridin-2-yl]-6-(trifluoro-methyl)-3H-imidazo[4,5-c]pyridine] | 3.16 | 3.22 | 3.16 | 100 | – | – | – | –
2 | CSc1cc(F)ccc1-c1nc2cc(C(F)(F)F)ncc2n1C [Example I-4] | 2.65 | – | – | 100 | 2.70 | 90 | – | –
3 | CSc1cc(C(F)(F)F)ccc1-c1nc2cc(C(F)(F)F)ncc2n1C [Example I-5] | 3.26 | – | – | 100 | 3.30 | – | – | –
4 | Cn1c(-c2ccc(Cl)cc2[S+](C)[O-])nc2cc(C(F)(F)F)ncc21 (stereo not drawn) [Example I-10] | 2.08 | – | – | 100 | 2.15 | 100 | – | –
5 | Cn1c(-c2ccc(F)cc2[S+](C)[O-])nc2cc(C(F)(F)F)ncc21 (stereo not drawn) [Example I-12] | 1.83 | – | – | 100 | 1.88 | 90 | – | –
6 | CCSc1ccccc1-c1nc2cc(C(F)(F)F)ncc2n1C [Example I-17] | 2.87 | – | – | – | 2.94 | 90 | 83 | –
7 | CCSCCSc1cc(C(F)(F)F)cnc1-c1nc2cc(C(F)(F)F)ncc2n1C [Example I-23] | 3.96 | – | – | – | 4.02 | 100 | – | –
8 | CCSc1cccnc1-c1nc2cc(C(F)(F)F)ncc2n1C [Example I-24] | 2.32 | – | – | 100 | 2.39 | 100 | – | –
9 | CSc1cc(Cl)ccc1-c1nc2cc(C(F)(F)F)ncc2n1C [Example I-25] | 2.97 | – | – | 100 | 3.08 | – | – | –
10 | Cn1c(-c2ncc(C(F)(F)F)cc2[S+](C)[O-])nc2cc(C(F)(F)F)ncc21 (stereo not drawn) [Example I-26, 3-methyl-2-[3-(methylsulphinyl)-5-(trifluoromethyl)pyridin-2-yl]-6-(trifluoro-methyl)-3H-imidazo[4,5-c]pyridine] | 2.76 | 2.81 | 2.76 | 100 | – | – | – | 100
11 | Cn1c(-c2ncccc2SC(F)(F)F)nc2cc(C(F)(F)F)ncc21 [Example I-29] | 2.93 | – | – | 100 | 3.04 | – | – | –
12 | Cn1c(-c2ccc(C(F)(F)F)cc2[S+](C)[O-])nc2cc(C(F)(F)F)ncc21 (stereo not drawn) [Example I-30] | 2.36 | – | – | 83 | 2.41 | – | – | –
13 | CCCSc1cc(C(F)(F)F)cnc1-c1nc2cc(C(F)(F)F)ncc2n1C [Example I-31] | 3.86 | – | – | 100 | 3.94 | – | – | –
14 | Cn1c(-c2ncc(C(F)(F)F)cc2S(C)(=O)=O)nc2cc(C(F)(F)F)ncc21 [Example I-36, 3-Methyl-2-[3-(methylsulphonyl)-5-(trifluoromethyl)pyridin-2-yl]-6-(trifluoromethyl)-3H-imidazo[4,5-c]pyridine] | 2.64 | – | 2.64 | 100 | 2.67 | – | – | –
15 | CC[S+]([O-])c1cc(C(F)(F)F)cnc1-c1nc2cc(C(F)(F)F)ncc2n1C (stereo not drawn) [Example I-37] | 3.10 | – | – | 100 | 3.17 | – | – | 100
16 | CCS(=O)(=O)c1ccc(Cl)cc1-c1nc2cc(C(F)(F)F)ncc2n1C [Example I-38] | 2.63 | – | – | 100 | 2.68 | 90 | – | –
17 | CC(C)Sc1cc(C(F)(F)F)cnc1-c1nc2cc(C(F)(F)F)ncc2n1C [Example I-41] | 3.73 | – | – | 100 | 3.80 | – | – | –
18 | CCS(=O)(=O)c1cc(Cl)ccc1-c1nc2cc(C(F)(F)F)ncc2n1C [Example I-43] | 2.61 | – | – | 100 | 2.69 | 100 | – | –
19 | CCS(=O)(=O)c1ccc(OC)nc1-c1nc2cc(C(F)(F)F)ncc2n1C [Example I-45] | – | – | – | 100 | 2.53 | 90 | – | –
20 | CCSc1cc(C(F)(F)F)cnc1-c1nc2cc(C(F)(F)C(F)(F)F)ncc2n1C [Example I-47] | 4.02 | – | – | 100 | 4.10 | – | – | 100
21 | CCS(=O)(=O)c1ccc(NC(C)=O)nc1-c1nc2cc(C(F)(F)F)ncc2n1C [Example I-49] | 1.99 | – | – | 100 | 2.05 | 90 | – | –
22 | CCSc1ccc(NC(C)=O)nc1-c1nc2cc(C(F)(F)F)ncc2n1C [Example I-50] | 2.27 | – | – | 100 | 2.39 | 90 | – | –
23 | CC[S+]([O-])c1c(C(F)(F)F)ccnc1-c1nc2cc(C(F)(F)F)ncc2n1C (stereo not drawn) [Example I-51] | – | – | – | 100 | 2.48 | 90 | – | –
24 | CCS(=O)(=O)c1cc(C(F)(F)F)cnc1-c1nc2cc(Cl)ncc2n1C [Example I-52] | 2.51 | – | – | 100 | 2.61 | 100 | – | –
25 | Cn1c(-c2ncc(C(F)(F)F)cc2S(=O)(=O)CCF)nc2cc(C(F)(F)F)ncc21 [Example I-54] | 3.07 | – | – | 100 | 3.16 | – | – | 100
26 | CCSc1cc(C(F)(F)F)cnc1-c1nc2cc(Cl)ncc2n1C [Example I-55] | 3.01 | – | – | 100 | 3.12 | – | – | –
27 | CCS(=O)(=O)c1cc(C(N)=O)cnc1-c1nc2cc(C(F)(F)F)ncc2n1C [Example I-56] | 1.56 | – | – | – | 1.61 | 90 | – | –
28 | CC[S+]([O-])c1cc(C(F)(F)F)cnc1-c1nc2cc(C(F)(F)C(F)(F)F)ncc2n1C (stereo not drawn) [Example I-63] | 3.62 | – | – | 83 | 3.75 | – | – | 100
29 | COc1ccc(S(C)(=O)=O)c(-c2nc3cc(C(F)(F)F)ncc3n2C)n1 [Example I-73] | 2.20 | – | – | 100 | 2.25 | – | – | –
